Laboratory results as given in patent US20220363686A1 (AiCuris GmbH & Co. KG, priority 2018, published 2022).
Like-named read-outs stand apart in the source and are kept apart here.

How the values were obtained:
[1] = target: HBV core protein (C-terminal truncated core protein containing 149 amino acids of the N-terminal assembly domain) (UniProt P03146); experiment: Biochemical capsid assembly assay (fluorescence quenching); design: rows headed: Assembly Activity; other: BODIPY-FL labelled core protein, assembly started with NaCl, read after 6 min; settings: read-out: Assembly Activity; BODIPY-FL labelled core protein, assembly started with NaCl, read after 6 min
Sequence of HBV core protein (C-terminal truncated core protein containing 149 amino acids of the N-terminal assembly domain) (P03146 whole entry, the tested form may be a part): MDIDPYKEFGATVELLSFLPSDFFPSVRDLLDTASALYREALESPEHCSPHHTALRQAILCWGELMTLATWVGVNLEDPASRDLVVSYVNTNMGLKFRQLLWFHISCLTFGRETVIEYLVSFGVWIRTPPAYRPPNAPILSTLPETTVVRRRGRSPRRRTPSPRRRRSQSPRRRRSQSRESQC
Procedure, shortened: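 N-terminal assembly domain (residues 1–149) plus C-terminal Cys150, E. coli-expressed, BODIPY-FL-maleimide labelled, used at 1.0–2.0 μM in 50 mM HEPES pH 7.5 with 0.5% DMSO. Assembly started with NaCl ([…]); fluorescence quenching (ex 477/em 525 nm) read after 6 min. 8-point compound series; EC50 by non-linear regression.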

[2] = system: HBV; experiment: Determination of HBV DNA from the supernatants of HepAD38 cells (anti-HBV activity); type: cell-based, hepatitis B virus; settings: HBV DNA in HepAD38 supernatant, day 6, qPCR, read-out: Cell Activity
Procedure, shortened: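 HepAD38 cells (60,000/well) seeded in tetracycline-free medium to induce HBV, treated with half-log serial compound dilutions for 6 days at 37 °C. HBV DNA purified from filtered supernatant and quantified by real-time PCR against HBV plasmid standards; EC50 from relative copy numbers by non-linear regression.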

[3] = system: HepAD38 cells; experiment: Cell viability assay (AlamarBlue); settings: 0.3 μg/ml tetracycline, six days incubation, AlamarBlue
[4] = Cell viability assay (AlamarBlue); settings: human, HepAD38 cells
[5] = Hepatitis B virus, HePAD38, 144 h

| SMILES | IC50 [1] [µM] | EC50 [2] [µM] | CC50 [3] [µM] | EC50 [2, 5] [µM] | CC50 at 6 days [4] [µM] |
| --- | --- | --- | --- | --- | --- |
| CC1Cn2ncc(C(=O)NC3(COC(F)F)CC3)c2CN1C(=O)c1cc2ccccc2[nH]1 (single isomer, unassigned) [Example 132, N-{1-[(difluoromethoxy)methyl]cyclopropyl}-5-(1H-indole-2-carbonyl)-6-methyl-4H,5H,6H,7H-pyrazolo[1,5-a]pyrazine-3-carboxamide] | < 5 | < 1 | > 10 |  |  |
| CN(C(=O)c1cnn2c1CN(C(=O)c1cc3ccccc3[nH]1)CC2)C1(CO)CC1 [Example 15, N-[1-(hydroxymethyl)cyclopropyl]-5-(1H-indole-2-carbonyl)-N-methyl-4H,5H,6H,7H-pyrazolo[1,5-a]pyrazine-3-carboxamide] | < 5 |  |  | < 1 | > 10 |
| CN(Cc1ccccc1)C(=O)c1cnn2c1CN(C(=O)c1cc3ccccc3[nH]1)CC2 [Example 63, N-benzyl-5-(1H-indole-2-carbonyl)-N-methyl-4H,5H,6H,7H-pyrazolo[1,5-a]pyrazine-3-carboxamide] | < 5 |  |  | < 1 | > 10 |
| O=C(c1cc2ccccc2[nH]1)N1CCn2ncc(S(=O)(=O)N3CCCC3)c2C1 [Example 39, 2-[3-(pyrrolidine-1-sulfonyl)-4H,5H,6H,7H-pyrazolo[1,5-a]pyrazine-5-carbonyl]-1H-indole] | < 5 |  |  | < 1 | > 10 |
| CN(C(=O)c1cnn2c1CN(C(=O)c1cc3c(F)ccc(F)c3[nH]1)CC2)C1(CO)CC1 [Example 82, 5-(4,7-difluoro-1H-indole-2-carbonyl)-N-[1-(hydroxymethyl)cyclopropyl]-N-methyl-4H,5H,6H,7H-pyrazolo[1,5-a]pyrazine-3-carboxamide] | < 5 |  |  | < 1 | > 10 |
| O=C(NC1(CCOC(F)F)CCCC1)c1cnn2c1CN(C(=O)c1cc3ccccc3[nH]1)CC2 [Example 124, N-{1-[2-(difluoromethoxy)ethyl]cyclopentyl}-5-(1H-indole-2-carbonyl)-4H,5H,6H,7H-pyrazolo[1,5-a]pyrazine-3-carboxamide] | < 5 |  |  | < 1 | > 10 |
| NS(=O)(=O)c1cnn2c1CN(C(=O)c1cc3ccccc3[nH]1)CC2 [Example 26, 5-(1H-indole-2-carbonyl)-4H,5H,6H,7H-pyrazolo[1,5-a]pyrazine-3-sulfonamide] | < 5 |  |  | < 1 | > 10 |
| COCC1(N(C)S(=O)(=O)c2cnn3c2CN(C(=O)c2cc4ccccc4[nH]2)CC3)CC1 [Example 32, 5-(1H-indole-2-carbonyl)-N-[1-(methoxymethyl)cyclopropyl]-N-methyl-4H,5H,6H,7H-pyrazolo[1,5-a]pyrazine-3-sulfonamide] | < 5 |  |  | < 1 | > 10 |
| CNC(=O)c1cnn2c1CN(C(=O)c1cc3ccccc3[nH]1)CC2 [Example 100, 5-(1H-indole-2-carbonyl)-N-methyl-4H,5H,6H,7H-pyrazolo[1,5-a]pyrazine-3-carboxamide] | 5 to 10 |  |  | < 100 | > 10 |
| O=C(c1cc2ccccc2[nH]1)N1CCn2ncc(C(=O)N3CCC(F)(F)C34CC4)c2C1 [Example 56, 2-(3-{7,7-difluoro-4-azaspiro[2.4]heptane-4-carbonyl}-4H,5H,6H,7H-pyrazolo[1,5-a]pyrazine-5-carbonyl)-1H-indole] | < 5 |  |  | < 1 | > 10 |
| CC1Cn2ncc(C(=O)NC3(COC(F)F)CC3)c2CN1C(=O)c1cc2cc(F)c(F)cc2[nH]1 (stereo not drawn) [Example 94, 5-(5,6-difluoro-1H-indole-2-carbonyl)-N-{1-[(difluoromethoxy)methyl]cyclopropyl}-6-methyl-4H,5H,6H,7H-pyrazolo[1,5-a]pyrazine-3-carboxamide] | < 5 |  |  | < 1 | > 10 |
| O=C(NCCOC(F)F)c1cnn2c1CN(C(=O)c1cc3ccccc3[nH]1)CC2 [Example 54, N-[2-(difluoromethoxy)ethyl]-5-(1H-indole-2-carbonyl)-4H,5H,6H,7H-pyrazolo[1,5-a]pyrazine-3-carboxamide] | < 5 |  |  | 1 to 10 | > 10 |
| O=C(NC1(COC(F)F)CC1)c1cnn2c1CN(C(=O)c1cc3c(Cl)cccc3[nH]1)CC2 [Example 105, 5-(4-chloro-1H-indole-2-carbonyl)-N-{1-[(difluoromethoxy)methyl]cyclopropyl}-4H,5H,6H,7H-pyrazolo[1,5-a]pyrazine-3-carboxamide] | < 5 |  |  | < 1 | > 10 |
| O=C(c1cc2ccccc2[nH]1)N1CCn2ncc(C3(O)CC(c4ccccc4)C3)c2C1 (stereo not drawn) [Example 51, 1-[5-(1H-indole-2-carbonyl)-4H,5H,6H,7H-pyrazolo[1,5-a]pyrazin-3-yl]-3-phenylcyclobutan-1-ol] | 5 to 10 |  |  | 1 to 10 | > 10 |
| CN(C(=O)c1cnn2c1CN(C(=O)c1cc3ccccc3[nH]1)CC2)C1(C2OCCO2)CC1 [Example 138, N-[1-(1,3-dioxolan-2-yl)cyclopropyl]-5-(1H-indole-2-carbonyl)-N-methyl-4H,5H,6H,7H-pyrazolo[1,5-a]pyrazine-3-carboxamide] | < 5 |  |  | < 1 | > 10 |
| CN(C(=O)c1cnn2c1CN(C(=O)c1cc3ccccc3[nH]1)CC2)C1(C)COC1 [Example 136, 5-(1H-indole-2-carbonyl)-N-methyl-N-(3-methyloxetan-3-yl)-4H,5H,6H,7H-pyrazolo[1,5-a]pyrazine-3-carboxamide] | < 5 |  |  | 1 to 10 | > 10 |
| O=C(c1cc2c(Cl)cccc2[nH]1)N1CCn2ncc(C(=O)N3CCC(O)CC34CC4)c2C1 (stereo not drawn) [Example 118, 4-[5-(4-chloro-1H-indole-2-carbonyl)-4H,5H,6H,7H-pyrazolo[1,5-a]pyrazine-3-carbonyl]-4-azaspiro[2.5]octan-7-ol] | < 5 |  |  | < 1 | > 10 |
| COCC1(NC(=O)c2cnn3c2CN(C(=O)c2cc4ccccc4[nH]2)CC3)CC1 [Example 50, 5-(1H-indole-2-carbonyl)-N-[1-(methoxymethyl)cyclopropyl]-4H,5H,6H,7H-pyrazolo[1,5-a]pyrazine-3-carboxamide] | < 5 |  |  | < 1 | > 10 |
| O=C(NC1(CCOC(F)F)CCOCC1)c1cnn2c1CN(C(=O)c1cc3ccccc3[nH]1)CC2 [Example 125, N-{4-[2-(difluoromethoxy)ethyl]oxan-4-yl}-5-(1H-indole-2-carbonyl)-4H,5H,6H,7H-pyrazolo[1,5-a]pyrazine-3-carboxamide] | < 5 |  |  | < 1 | > 10 |
| CC(C)NS(=O)(=O)c1cnn2c1CN(C(=O)c1cc3ccccc3[nH]1)CC2 [Example 37, 5-(1H-indole-2-carbonyl)-N-(propan-2-yl)-4H,5H,6H,7H-pyrazolo[1,5-a]pyrazine-3-sulfonamide] | < 5 |  |  | < 1 | > 10 |
| Cc1cc(F)cc2[nH]c(C(=O)N3Cc4c(C(=O)N[C@H](C)C(F)(F)F)cnn4CC3C)cc12 (stereo partly drawn) [Example 146, 5-(6-fluoro-4-methyl-1H-indole-2-carbonyl)-6-methyl-N-[(2R)-1,1,1-trifluoropropan-2-yl]-4H,5H,6H,7H-pyrazolo[1,5-a]pyrazine-3-carboxamide] | < 5 |  |  | < 1 | > 10 |
| CN(C(=O)c1cnn2c1CN(C(=O)c1cc3cc(F)c(Cl)cc3[nH]1)CC2)C1(CO)CC1 [Example 84, 5-(6-chloro-5-fluoro-1H-indole-2-carbonyl)-N-[1-(hydroxymethyl)cyclopropyl]-N-methyl-4H,5H,6H,7H-pyrazolo[1,5-a]pyrazine-3-carboxamide] | < 5 |  |  | < 1 | > 10 |
| Cc1c(F)ccc2[nH]c(C(=O)N3CCn4ncc(C(=O)N[C@H](C)C(F)(F)F)c4C3)cc12 [Example 113, 5-(5-fluoro-4-methyl-1H-indole-2-carbonyl)-N-[(2R)-1,1,1-trifluoropropan-2-yl]-4H,5H,6H,7H-pyrazolol[1,5-a]pyrazine-3-carboxamide] | < 5 |  |  | < 1 | > 10 |
| CN(C(=O)c1cnn2c1CN(C(=O)c1cc3ccccc3[nH]1)CC2)C1(c2cocn2)CC1 [Example 57, 5-(1H-indole-2-carbonyl)-N-methyl-N-[1-(1,3-oxazol-4-yl)cyclopropyl]-4H,5H,6H,7H-pyrazolo[1,5-a]pyrazine-3-carboxamide] | < 5 |  |  | < 1 | > 10 |
| CC(NS(=O)(=O)c1cnn2c1CN(C(=O)c1cc3ccccc3[nH]1)CC2)C(F)(F)F (stereo not drawn) [Example 28, 5-(1H-indole-2-carbonyl)-N-(1,1,1-trifluoropropan-2-yl)-4H,5H,6H,7H-pyrazolo[1,5-a]pyrazine-3-sulfonamide] | < 5 |  |  | 1 to 10 | > 10 |
